Measurements as given in patent US11780851B2, “LRRK2 inhibitors” (H. Lundbeck A/S, priority 2021, dated 2023).
Entries after “also recorded” stand apart in the source; their conditions may differ. Like-named read-outs stand apart in the source and are kept apart here.

Tests used:
GSH adduct screening = type: in vitro ADME, human; conditions: 1 μM, 3 h at 37° C., HLM 0.5 mg/mL, NADPH, with and without GSH
Procedure: Test compounds (final concentration 1 μM, 0.25% organic) were incubated for 3 h at 37° C. in commercially sourced, pooled donor, human liver microsomes (HLM, final concentration 0.5 mg/mL) with and without addition of glutathione (GSH; final concentration […]). The metabolic reaction was initiated by addition of microsomal solution to the mixture of cofactor NADPH (final concentration 1 mM), test compound and GSH. After 3 h of incubation in a water bath at 37° C., the reaction was stopped by addition of 0.2% formic acid in acetonitrile, followed by mixing and centrifugation (16000 g for 5 minutes). Supernatant was diluted (1:1) with HPLC water then analyzed by liquid chromatography (LC)-quadrupole time-of-flight mass spectrometry (QTOF-MS). Accurate mass MS and MS/MS spectra from samples with GSH and without GSH, respectively, were compared to identify detectable GSH and/or cysteine related adducts.

LRRK2 WT = molecular target: T1, LRRK2 WT (Homo sapiens, UniProt Q5S007); test: LRRK2 wild-type kinase activity assay (LanthaScreen TR-FRET); type: biochemical; conditions: 1 nM LRRK2 WT, 1.3 mM ATP, 3.5 h at 30° C.; n≥2 tests
T1 construct: comprises residue 970 to 2527 of the full length human wild-type LRRK2 kinase; purchased Invitrogen (Life Technologies Corporation)
T1 sequence (Q5S007 970-2527): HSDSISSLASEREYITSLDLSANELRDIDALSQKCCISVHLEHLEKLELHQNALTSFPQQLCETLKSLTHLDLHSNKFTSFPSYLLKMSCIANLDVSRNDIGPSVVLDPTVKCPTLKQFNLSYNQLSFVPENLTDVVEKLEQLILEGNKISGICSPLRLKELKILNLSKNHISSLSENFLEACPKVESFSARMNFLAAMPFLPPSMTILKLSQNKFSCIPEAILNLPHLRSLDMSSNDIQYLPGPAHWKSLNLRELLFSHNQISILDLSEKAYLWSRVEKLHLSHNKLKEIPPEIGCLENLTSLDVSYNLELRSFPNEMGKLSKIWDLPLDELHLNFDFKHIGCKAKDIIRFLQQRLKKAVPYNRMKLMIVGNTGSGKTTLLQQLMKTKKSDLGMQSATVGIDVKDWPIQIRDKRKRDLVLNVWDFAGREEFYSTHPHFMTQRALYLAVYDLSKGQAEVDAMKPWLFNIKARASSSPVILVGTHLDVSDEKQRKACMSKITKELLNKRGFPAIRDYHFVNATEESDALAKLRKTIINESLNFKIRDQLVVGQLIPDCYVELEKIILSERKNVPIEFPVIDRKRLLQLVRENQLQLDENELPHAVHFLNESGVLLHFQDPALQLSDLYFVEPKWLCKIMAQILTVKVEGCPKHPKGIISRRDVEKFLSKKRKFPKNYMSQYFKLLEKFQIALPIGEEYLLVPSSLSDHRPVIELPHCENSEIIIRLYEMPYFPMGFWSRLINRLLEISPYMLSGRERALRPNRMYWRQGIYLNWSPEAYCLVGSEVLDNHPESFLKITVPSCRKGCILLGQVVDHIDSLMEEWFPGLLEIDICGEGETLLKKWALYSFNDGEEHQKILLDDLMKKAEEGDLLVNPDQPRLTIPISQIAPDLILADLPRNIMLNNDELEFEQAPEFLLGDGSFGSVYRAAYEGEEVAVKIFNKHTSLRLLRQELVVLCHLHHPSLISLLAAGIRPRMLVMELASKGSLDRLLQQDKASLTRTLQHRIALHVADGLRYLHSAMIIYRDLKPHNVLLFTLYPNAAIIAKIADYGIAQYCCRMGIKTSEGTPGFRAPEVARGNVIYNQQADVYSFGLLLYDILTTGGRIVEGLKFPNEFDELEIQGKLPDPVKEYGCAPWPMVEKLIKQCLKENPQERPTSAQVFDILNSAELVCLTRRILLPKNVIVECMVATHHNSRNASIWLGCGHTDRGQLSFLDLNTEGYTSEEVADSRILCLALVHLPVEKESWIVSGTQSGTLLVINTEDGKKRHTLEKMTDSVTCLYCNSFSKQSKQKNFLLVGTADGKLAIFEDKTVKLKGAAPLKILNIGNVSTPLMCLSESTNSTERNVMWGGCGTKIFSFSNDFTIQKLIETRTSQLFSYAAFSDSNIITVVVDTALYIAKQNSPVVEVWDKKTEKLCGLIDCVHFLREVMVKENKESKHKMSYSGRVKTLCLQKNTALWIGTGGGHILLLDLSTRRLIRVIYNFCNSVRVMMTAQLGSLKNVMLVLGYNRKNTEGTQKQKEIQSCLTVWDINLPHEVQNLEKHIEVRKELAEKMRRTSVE
How it was run: (§1)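 TR-FRET measured phosphorylation of fluorescein-ERM LRRKtide by human LRRK2 residues 970–2527, wild-type or G2019S, detected with a terbium anti-phospho-LRRKtide antibody. The 520/495 nm ratio was normalized to uninhibited and inhibitor controls. IC50 came from a Hill fit, log-averaged over independent experiments.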

[1] = Hepatocyte intrinsic clearance assay; type: in vitro ADME, human; conditions: human, pooled donor, cryopreserved hepatocytes, pH 7.4, 0.1 μM, 2 h at 37° C., 1×10^6 hepatocytes/mL; * measured on 3 separate occasions, ** on a single occasion
Procedure: Test compounds (final concentration 0.1 μM, 0.05% organic) were incubated for 2 h at 37° C., with shaking, in supplemented Leibovitz L-15 media (pH7.4) containing commercially sourced, pooled donor, cryopreserved hepatocytes (final concentration 1×10^6 hepatocytes/m L). The CLint reactions (350 μL) were initiated by addition of test compound. Aliquots (25 μL) were taken at 1, 5, 10, 15, 30, 60, 90 and 120 minutes and then protein crashed with ice-cold acetonitrile containing internal standard (150 μL) then centrifuged (1960 g for 20 minutes at 4° C.). Supernatant was diluted (1:4) with deionized water then analyzed by liquid chromatography (LC)-tandem mass spectrometry (MS/MS). The intrinsic clearances (CLint) were calculated from the slope (k) of the linear regressions of percentages of compound remaining in incubation against incubation time, according to equations 2 and 3.

[2] = Rat B/P (brain disposition); type: in vivo, male Sprague-Dawley rats; conditions: male, Sprague-Dawley; for concentration at 1 h / Kp uu at 1 h / Kp at 1 h: time point 1.0 h; for concentration at 1 h / Kp at 1 h / concentration at 0.5 h / Kp at 0.5 h: mean ± stdev; for Kp uu at 1 h / Kp at 1 h / Kp uu at 0.5 h / Kp at 0.5 h: brain/plasma; for Kp uu at 1 h / Kp uu at 0.5 h: fubrain from brain homogenate; for Kp at 1 h / Kp at 0.5 h: n = 3; for concentration at 0.5 h / Kp uu at 0.5 h / Kp at 0.5 h: time point 0.5 h
Procedure: Brain disposition was evaluated for each compound in male Sprague-Dawley rats (n=3, standard body weight). […] Isolated plasma and brain homogenates were extracted by standard protein precipitation in acetonitrile, containing internal standard, followed by LC-MS/MS analysis using an optimized analytical method. Concentrations of test compound in plasma and brain were quantified against matrix matched calibration standards. The total plasma and brain concentration data are presented in Table 7 alongside the calculated brain Kp (total brain concentration:total plasma concentration ratio).

[3] = Free fraction in plasma (equilibrium dialysis); type: in vitro ADME, male Sprague-Dawley rat; conditions: rat plasma, 1 μM, 5 h at 37° C.
Procedure: The free fractions in male Sprague-Dawley rat or female Gottingen minipig plasma (fuplasma) and rat brain homogenate (fubrain) were determined by equilibrium dialysis using 96-well HTD-dialysis plates with dialysis membranes (molecular weight cut off 12-14 KDa). One side of the HTD-dialysis plate was loaded with matrix (plasma or brain homogenate) and the other side with buffer (100 mM sodium phosphate buffer, pH 7.4). Test compounds were dissolved in DMSO then spiked (5 μL of 0.2 mM) into blank (995 μL) plasma or diluted brain homogenate (1:4 ratio in phosphate buffer) giving a final nominal concentration 1 μM (≤0.5% DMSO). The matrices were loaded into respective chambers and equilibrated against phosphate buffer for 5 h at 37° C. (in a humidified air incubator with 5% CO2 with shaking). Samples from both chambers (buffer and plasma or brain homogenate) were aliquoted to fresh 96-well polypropylene plates then matrix matched using an equal volume of opposite blank matrix before extraction with cold solvent (3 volumes acetonitrile) containing an appropriate bioanalytical internal standard. After centrifugation (20 min, 3200 g, 4° C.) the supernatants were diluted with appropriate volumes of water and compound concentrations were quantified by LC/MS-MS against matrix matched calibration standards. The fuplasma and fubrain were calculated as a percent free according to equation 4 below.
Where [F] is the analyte concentration on the buffer (receiver) side of the membrane; [T] is the analyte concentration on the plasma or brain (donor) side of the membrane; [TO] is the analyte concentration in the plasma or brain sample at time zero; D is matrix dilution factor which is determined as 4 for brain matrix and 1 for plasma matrix in these assays.

LRRK2 G2019S = molecular target: T2, LRRK2 G2019S (Homo sapiens, UniProt Q5S007, G2019S); test: LRRK2 G2019S kinase activity assay (LanthaScreen TR-FRET); type: biochemical; conditions: 250 pM LRRK2 G2019S, 1.3 mM ATP, 3 h at 30° C.; n≥2 tests
T2 construct: purchased Invitrogen (Life Technologies Corporation)
T2 sequence (Q5S007 970-2527 G2019S): as the sequence (Q5S007 970-2527) above, with G1050S counted along it
How it was run: as §1

[4] = brain, oral gavage 10 mg/kg, n = 3, read-out: Total brain concentration
[5] = plasma, oral gavage 10 mg/kg, n = 3, read-out: Total plasma concentration

Row | Structure (SMILES) | Adduct detected in GSH supplemented HLMs (GSH adduct screening) | IC50 (LRRK2 WT) | CLint scaled at 0.1 μM [1] | concentration at 1 h [2, 4] | Kp uu at 1 h ([2]; oral gavage 10 mg/kg) | Kp at 1 h ([2]; oral gavage 10 mg/kg) | concentration at 1 h [2, 5] | fuplasma (% free) [3] | IC50 (LRRK2 G2019S) | concentration at 1 h ([2]; brain, oral gavage 5 mg/kg, n = 3, read-out: Total brain concentration) | Kp uu at 1 h ([2]; oral gavage 5 mg/kg) | Kp at 1 h ([2]; oral gavage 5 mg/kg) | concentration at 1 h ([2]; plasma, oral gavage 5 mg/kg, n = 3, read-out: Total plasma concentration) | concentration at 0.5 h [2, 4] | Kp uu at 0.5 h ([2]; oral gavage 10 mg/kg) | Kp at 0.5 h ([2]; oral gavage 10 mg/kg) | concentration at 0.5 h [2, 5] | Kp uu at 1 h ([2]; po, 10 mg/kg, oral gavage 10 mg/kg)
1 | Cc1c2c(nn1[C@H]1CCCCOC1)OCCCn1nc(Cl)c3cnc(nc31)N2 (single isomer, unassigned) [Example 27, (−)-(R) or (S)-8-Chloro-3-methyl-2-(oxepan-3-yl)-2,4,12,13-tetrahydro-11H-5,7-(azenometheno)dipyrazolo[3,4-b:5′,1′-g][1]oxa[4,6,8]triazacycloundecine] | – | 25 nM | 0.57 L/h/kg | – | – | – | – | 19.9 % free | 7.3 nM | 443 ± 50 ng/g | 0.52 ± 0.01 | 1.63 ± 0.03 | 0.273 ± 0.036 µg/mL | – | – | – | – | –
2 | Cc1c2c(nn1[C@@H]1CCOC[C@H]1F)OCCCn1nc(Cl)c3cnc(nc31)N2 (single isomer, unassigned) [Example 31, (−)-8-Chloro-2-((3S,4R) or (3R,4S)-3-fluorotetrahydro-2H-pyran-4-yl)-3-methyl-2,4,12,13-tetrahydro-11H-5,7-(azenometheno)dipyrazolo[3,4-b:5′,1′-g][1]oxa[4,6,8]triazacycloundecine] | – | 5.6 nM | < 0.25 L/h/kg | 215 ± 70 ng/g | 0.5 ± 0.04 | 1.65 ± 0.13 | 0.133 ± 0.054 µg/mL | 24.9 % free | 2.4 nM | – | – | – | – | – | – | – | – | –
3 | Cc1c2c(nn1[C@H]1CCOC(C)(C)C1)OCCCn1nc(Cl)c3cnc(nc31)N2 (single isomer, unassigned) [Example 42, (+)-(R) or (S)-8-Chloro-2-(2,2-dimethyltetrahydro-2H-pyran-4-yl)-3-methyl-2,4,12,13-tetrahydro-11H-5,7-(azenometheno)dipyrazolo[3,4-b:5′,1′-g][1]oxa[4,6,8]triazacycloundecine] | – | 7.9 nM | 0.38 L/h/kg | – | – | – | – | 21.7 % free | 2.9 nM | – | – | – | – | 550 ± 283 ng/g | 0.32 ± 0.05 | 1.88 ± 0.31 | 0.295 ± 0.145 µg/mL | –
4 | Cc1c2c(nn1C1CCOCC1)OCCCn1nc(Cl)c3cnc(nc31)N2 [Example 2, 8-Chloro-3-methyl-2-(tetrahydro-2H-pyran-4-yl)-2,4,12,13-tetrahydro-11H-5,7-(azenometheno)dipyrazolo[3,4-b:5′,1′-g][1]oxa[4,6,8]triazacycloundecine] | +GSH | – | 0.85 L/h/kg | – | – | – | – | – | – | – | – | – | – | – | – | – | – | –
5 | CCc1c2c(nn1C1CCOCC1)OCCCn1nc(Cl)c3cnc(nc31)N2 [Example 17, 8-Chloro-3-ethyl-2-(tetrahydro-2H-pyran-4-yl)-2,4,12,13-tetrahydro-11H-5,7-(azenometheno)dipyrazolo[3,4-b:5′,1′-g][1]oxa[4,6,8]triazacycloundecine] | did not form GSH adduct; also recorded: None detected | 15 nM | 0.34 L/h/kg | 1150 ± 59 ng/g | – | 1.76 ± 0.08 | 0.653 ± 0.052 µg/mL | 27.5 % free | 5.8 nM | – | – | – | – | – | – | – | – | 0.59 ± 0.03
6 | [2H]C([2H])([2H])c1c2c(nn1[C@H]1CC[C@H](OC)CC1)OCCCn1nc(Cl)c3cnc(nc31)N2 [Example 50] | did not form GSH adduct; also recorded: None detected | 10 nM | < 0.24 L/h/kg | – | – | – | – | – | 5.3 nM | – | – | – | – | – | – | – | – | –

The remaining lines, values ahead:

Row | Adduct detected in GSH supplemented HLMs (GSH adduct screening) | IC50 (LRRK2 WT) | CLint scaled at 0.1 μM [1] | concentration at 1 h [2, 4] | Kp uu at 1 h ([2]; oral gavage 10 mg/kg) | Kp at 1 h ([2]; oral gavage 10 mg/kg) | concentration at 1 h [2, 5] | fuplasma (% free) [3] | IC50 (LRRK2 G2019S) | concentration at 1 h ([2]; brain, oral gavage 5 mg/kg, n = 3, read-out: Total brain concentration) | Kp uu at 1 h ([2]; oral gavage 5 mg/kg) | Kp at 1 h ([2]; oral gavage 5 mg/kg) | concentration at 1 h ([2]; plasma, oral gavage 5 mg/kg, n = 3, read-out: Total plasma concentration) | concentration at 0.5 h [2, 4] | Kp uu at 0.5 h ([2]; oral gavage 10 mg/kg) | Kp at 0.5 h ([2]; oral gavage 10 mg/kg) | concentration at 0.5 h [2, 5] | Kp uu at 1 h ([2]; po, 10 mg/kg, oral gavage 10 mg/kg) | Structure (SMILES)
7 | +GSH | 11 nM | < 0.24 L/h/kg | 897 ± 292 ng/g | 0.35 ± 0.05 | 1.47 ± 0.22 | 0.636 ± 0.265 µg/mL | 25.0 % free | 3.6 nM | – | – | – | – | – | – | – | – | – | Cc1c2c(nn1[C@@H]1CCO[C@H](C)C1)OCCCn1nc(Cl)c3cnc(nc31)N2 (single isomer, unassigned) [Example 18]
8 | +GSH | 9 nM | < 0.24 L/h/kg | – | – | – | – | – | 5.3 nM | – | – | – | – | – | – | – | – | – | [2H]C([2H])([2H])c1c2c(nn1[C@H]1CCO[C@@H](C)C1)OCCCn1nc(Cl)c3cnc(nc31)N2 (single isomer, unassigned) [Example 51, (+)-8-Chloro-3-(methyl-d3)-2-((2R,4R) or (2S,4S)-2-methyltetrahydro-2H-pyran-4-yl)-2,4,12,13-tetrahydro-11H-5,7-(azenometheno)dipyrazolo[3,4-b:5′,1′-g][1]oxa[4,6,8]triazacycloundecine]
9 | – | 17 nM | 0.34 L/h/kg | – | – | – | – | 25.2 % free | 6.4 nM | – | – | – | – | 620 ± 30 ng/g | – | 2.5 ± 0.31 | 0.25 ± 0.024 µg/mL | – | Cc1c2c(nn1[C@H]1C[C@@H](C)O[C@@H](C)C1)OCCCn1nc(Cl)c3cnc(nc31)N2 [Example 41, 8-chloro-2-((2R,4r,6S)-2,6-dimethyltetrahydro-2H-pyran-4-yl)-3-methyl-2,4,12,13-tetrahydro-11H-5,7-(azenometheno)dipyrazolo[3,4-b:5′,1′-g][1]oxa[4,6,8]triazacycloundecine]
10 | – | 13 nM | < 0.24 L/h/kg | – | – | – | – | 25.5 % free | 4.3 nM | – | – | – | – | 731 ± 223 ng/g | 0.3 ± 0.04 | 1.56 ± 0.23 | 0.468 ± 0.117 µg/mL | – | Cc1c2c(nn1[C@@H]1C[C@H]3CC[C@@H](C1)O3)OCCCn1nc(Cl)c3cnc(nc31)N2 [Example 44, 2-((1R,3s,5S)-8-Oxabicyclo[3.2.1]octan-3-yl)-8-chloro-3-methyl-2,4,12,13-tetrahydro-11H-5,7-(azenometheno)dipyrazolo[3,4-b:5′,1′-g][1]oxa[4,6,8]triazacycloundecine]
